# According to US10590118B2, “Bicyclic heterocyclic derivatives as bromodomain inhibitors” (Orion Corporation, priority 2014, dated 2020):
# Target: T1, Bet bromodomain protein (BRD4) (Homo sapiens, UniProt O60885)
# T1 construct: made in house
# Experiment: Bet bromodomain TR-FRET assay
# Format: binding
# Conditions: 300 nM acetyl histone peptide substrate, results given as Group A/B/C
# Procedure: In-Vitro Biochemical Data of bicyclic heterocyclic derivatives in time-resolved fluorescence resonance energy transfer (TR-FRET) assay.
# The Bet brommodomain TR-FRET assay has been used to identify compounds that bind to bet bromodomain and prevent its interaction with acetylated histone peptides.
# In the assay, optimized concentration of in-house Bet bromodomain protein (BRD4) and 300 nM of acetyl histone peptide substrate were diluted in assay buffer (50 mM HEPES, pH: 7.5, 50 mM NaCl, 500 μM CHAPS) and were added to the positive control and test control wells in a 384 well plate. Substrate control wells have 300 nM of acetyl histone peptide substrate diluted in assay buffer. Buffer blank wells were added with assay buffer. The reaction mixture was allowed for incubation at room temperature for 30 mins. Stock solutions of test compounds at 20 mM DMSO are prepared. Compounds are serially diluted and added to the test wells in 384-well polypropylene plates. The reaction mixture was further incubated for 30 mins at room temperature on a plate shaker. 2 nM of Europium labeled streptavidn and 10 nM of XL-665 labeled antibody diluted in detection buffer (50 mM HEPES, pH: 7.5, 50 mM NaCl, 500 μM CHAPS and 800 mM KF) were added to all the wells excluding the buffer blank wells. The reaction plate was incubated for additional 30 mins at room temperature on plate shaker. The plate was read in Perkin Elmer WALLAC 1420 Multilabel Counter Victor 3 (Ex: 340 nm Em: 615 and 665 nm). The amount of displacement of the peptide was measured as ratio of specific 665 nm energy transfer signal to 615 nm signals. The compounds IC50 was determined by fitting the dose response data to sigmoid curve fitting equation using Graph Pad Prism software V5.
row,Compound,IC50
1,"COc1cc2c(cc1-c1c(C)noc1C)CCC(=O)N2Cc1ccccn1 [Compound 10, 6-(3,5-dimethylisoxazol-4-yl)-7-methoxy-1-(pyridin-2-ylmethyl)-3,4-dihydroquinolin-2(1H)-one]",≤ 1000 nM
2,"Cc1noc(C)c1-c1cc2ccc(=O)n(Cc3ccccn3)c2cc1OCCO [Compound 80, 6-(3,5-dimethylisoxazol-4-yl)-7-(2-hydroxyethoxy)-1-(pyridin-2-ylmethyl)quinolin-2(1H)-one]",≤ 1000 nM
3,"COc1cc2c(cc1-c1c(C)noc1C)cc(C1CCCCC1)c(=O)n2Cc1cccnc1 [Compound 69, 3-cyclohexyl-6-(3,5-dimethylisoxazol-4-yl)-7-methoxy-1-(pyridin-3-ylmethyl)quinolin-2(1H)-one]",≤ 1000 nM
4,"COc1cc2c(cc1-c1c(C)noc1C)OCCN2Cc1ccccc1N [Compound 16, 2-((7-(3,5-dimethylisoxazol-4-yl)-6-methoxy-2H-benzo[b][1,4]oxazin-4(3H)-yl)methyl)aniline]",≤ 1000 nM
5,"COc1ccc(Cn2c(=O)ccc3cc(-c4c(C)noc4C)c(OC)cc32)nc1 [Compound 2, 6-(3,5-dimethytisoxazol-4-yl)-7-methoxy-1-((5-methoxypyridin-2-yl)methyl)quinolin-2(1H)-one]",≤ 1000 nM
6,"COc1cc2c(cc1-c1c(C)noc1C)CC(C)(C)C(=O)N2Cc1ccccn1 [Compound 52, 6-(3,5-dimethytisoxazol-4-yl)-7-methoxy-3,3-dimethyl-1-(pyridin-2-ylmethyl)-3,4-dihydroquinolin-2(1H)-one]",> 3000 nM
7,"COc1cc2c(cc1-c1c(C)noc1C)CCC(=O)N2Cc1ccc(Cl)cc1 [Compound 5, 1-(4-chlorobenzyl)-6-(3,5-dimethyisoxazol-4-yl)-7-methoxy-3,4-dihydroquinolin-2(1H)-one]",≤ 1000 nM
8,"COc1cc2c(cc1-c1c(C)noc1C)c(C(F)(F)F)cc(=O)n2Cc1ccccn1 [Compound 54, 6-(3,5-dimethytisoxazol-4-yl)-7-methoxy-1-(pyridin-2-ylmethyl)-4-(trifluoromethyl)quinolin-2(1H)-one]",> 3000 nM
9,"Cc1noc(C)c1-c1cc2ccc(=O)n(Cc3ccccn3)c2cc1OCC1CCOCC1 [Compound 87, 6-(3,5-dimethylisoxazol-4-yl)-1-(pyridin-2-ylmethyl)-7-((tetrahydro-2H-pyran-4-yl)methoxy)quinolin-2(1H)-one]",1000 to 3000 nM
10,"Cc1noc(C)c1-c1cc2ccc(=O)n(Cc3ccccn3)c2cc1OCCCO [Compound 84, 6-(3,5-dimethylisoxazol-4-yl)-7-(3-hydroxypropoxy)-1-(pyridin-2-ylmethyl)quinolin-2(1H)-one]",≤ 1000 nM
11,"COc1cc2c(cc1-c1c(C)noc1C)OCCN2S(=O)(=O)c1cccc(Cl)c1 [Compound 11, 4-((3-chlorophenyl)sulfonyl)-7-(3,5-dimethylisoxazol-4-yl)-6-methoxy-3,4-dihydro-2H-benzo[b][1,4]oxazine]",1000 to 3000 nM
12,"COc1cc2c(cc1-c1c(C)noc1C)OCC(=O)N2Cc1cccnc1 [Compound 21, 7-(3,5-dimethylisoxazol-4-yl)-6-methoxy-4-(pyridin-3-ylmethyl)-2H-benzo[b][1,4]oxazin-3(4H)-one]",≤ 1000 nM
13,"COc1cc2c(ccc(=O)n2Cc2ccncn2)cc1-c1c(C)noc1C [Compound 44, 6-(3,5-dimethylisoxazol-4-yl)-7-methoxy-1-(pyrimidin-4-ylmethyl)quinolin-2(1H)-one]",≤ 1000 nM
14,"COc1cc2c(cc1-c1c(C)noc1C)cc(CC#N)c(=O)n2CCc1ccc(Cl)cc1 [Compound 106, 2-(1-(4-chlorophenethyl)-6-(3,5-dimethylisoxazol-4-yl)-7-methoxy-2-oxo-1,2-dihydroquinolin-3-yl)acetonitrile]",≤ 1000 nM
15,"COc1cc2c(cc1-c1c(C)noc1C)OCC(=O)N2Cc1ccc(C#N)cn1 [Compound 27, 6-((7-(3,5-dimethylisoxazol-4-yl)-6-methoxy-3-oxo-2H-benzo[b][1,4]oxazin-4(3H)-yl)methyl)nicotinonitrile]",1000 to 3000 nM
